{
  "source": "patent US12527796B2",
  "about": "“[6R]-MTHF—an efficient folate alternative in 5-fluorouracil based chemotherapy” (Isofol Medical AB, priority 2017, dated 2026)",
  "key": {"Thymidylate Synthase": {"target": "Thymidylate Synthase (Lacticaseibacillus casei, UniProt P00469)", "sequence (P00469 whole entry)": "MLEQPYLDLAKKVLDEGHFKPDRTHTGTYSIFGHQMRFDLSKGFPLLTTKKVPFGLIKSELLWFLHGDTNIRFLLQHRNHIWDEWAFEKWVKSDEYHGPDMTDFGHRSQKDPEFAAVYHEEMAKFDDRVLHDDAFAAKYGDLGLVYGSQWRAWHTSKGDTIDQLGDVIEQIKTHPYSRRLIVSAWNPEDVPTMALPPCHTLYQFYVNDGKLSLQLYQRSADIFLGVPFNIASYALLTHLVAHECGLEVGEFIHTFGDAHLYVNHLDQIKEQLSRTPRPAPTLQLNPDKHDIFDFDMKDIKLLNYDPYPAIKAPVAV", "conditions": "cited from earlier work"}, "pancreas cancer": {"test_system": "pancreas cancer", "conditions": "combined with 5-FU; cited from earlier work"}, "colorectal cancer": {"test_system": "colorectal cancer", "conditions": "Phase IIb; cited from earlier work"}, "[1]": {"test_system": "metastatic colorectal carcinoma", "conditions": "modulation of 5-FU with LV; cited from earlier work"}, "[2]": {"test_system": "stage IV colorectal cancer", "test": "ISO-CC-005 open-label Phase I/II dose cohort trial of [6R]-MTHF with 5-FU (response per RECIST 1.1, adverse events)", "format": "in vivo, human", "source_text": "As used herein, the term ORR shall refer to the Objective Response Rate, ie. the proportion of patients with reduction in tumor burden of a predefined amount. […] (Note: the appearance of one or more new lesions is also considered progression). Stable Disease (SD): • Neither sufficient shrinkage to qualify for PR nor sufficient increase to qualify for PD, taking as reference the smallest sum diameters while on study. ([…], Schwartz […], Ford R, et al. New response evaluation criteria in solid tumours: revised RECIST guideline (version 1.1). Eur J Cancer. 2009 January; 45(2):228-47) […] A maximum of 63 Stage IV CRC patients eligible for 1st, 2nd or 3rd line treatment are planned to be enrolled in this study disposed as follows: three to six patients in each dose cohort, and three additional patients in one dose cohort in each treatment arm according to the following study design (Table 1). [table] […] Dosing: Rapid i.v. bolus injections at a fixed dose of 30, 60, 120 or 240 mg/m^2, will be administered approximately 30 minutes after administration of 5-FU on Day 1 and Day 2 in each treatment cycle in all ^dose cohorts of the study (i.e. regardless of treatment arm). The regimen will be repeated every second week for up to eight (8) cycles, i.e. up to sixteen (16) weeks. 5-FU (5-fluorouracil) is formulated as injection solution. Dosing: 5-FU will be administered as i.v. bolus injections on Day 1 and Day 2 in each treatment cycle. In Arm #2 and Arm #3 of the study, 5-FU will be administered approximately 60 minutes after start of Oxaliplatin or Irinotecan administration, respectively (see description below). The regimen will be repeated every second week for up to eight (8) cycles, i.e. up to sixteen (16) weeks. ISO-CC-005 is an open clinical phase I/II tolerability and dose definition study designed to evaluate safety and define the [6R]-MTHF dose for continued development. It evaluates four doses of [6R]-MTHF in combination with 5-FU with or without the different combinations of irinotecan or oxaliplatin and bevacizumab in patients with metastatic Colorectal Cancer using 4 different protocols: • MOD+5-FU: [6R]-MTHF in combination with 5-FU only, similar to Nordic FLV protocol • MOD+[…] in combination with 5-FU and Irinotecan, similar to Nordic FLIRI protocol • MOD+FLOX: [6R]-MTHF in combination with 5-FU and Oxaliplatin, similar to Nordic FLOX protocol • MOFOX: [6R]-MTHF in combination with 5-FU and Oxaliplatin, similar to FOLFOX-6 protocol The patients belong to several treatment lines ranging from first to third and even fifth lines. The results of the study are regularly assessed, and the results from the group of patients undergoing 1st line treatment and partially the group of patients undergoing 2nd, 3rd and 5th line treatment have previously (in August 2017) and again (December 2017) been analyzed. The clinical study is still ongoing. […] (see FIG. 2). Four (4) 1st line patients could not be followed for the additional 8 weeks' treatment due to study protocol formalities. No further 1st line patients had been analysed at this point."}, "[3]": {"conditions": "1st line patients, 8 weeks' treatment"}, "[4]": {"conditions": "30 patients, 1st, 2nd, 3rd and 5th line, after 8 weeks' treatment"}},
  "data": [
    {"smiles": "Nc1nc2c(c(=O)[nH]1)N1CN(c3ccc(C(=O)N[C@@H](CCC(=O)O)C(=O)O)cc3)C[C@@H]1CN2", "note": "(single isomer, unassigned) [[6S]-isomer]", "values": [
      {"measurement": "effect on the natural [6R]-isomer as co-substrate for TS", "setting": "Thymidylate Synthase", "result": "partial competitive inhibitor"}
    ]},
    {"smiles": "Nc1nc2c(c(=O)[nH]1)N1CN(c3ccc(C(=O)N[C@@H](CCC(=O)[O-])C(=O)[O-])cc3)CC1CN2.[Ca+2]", "note": "(stereo partly drawn) [CoFactor, [6R,S]-5,10-methylene-THF Ca salt]", "values": [
      {"measurement": "patients with clinical benefit, defined as stable disease or tumor response", "setting": "pancreas cancer", "result": 40, "unit": "%"},
      {"measurement": "differences between the study arms (CoFactor vs leucovorin) with regard to efficacy or safety", "setting": "colorectal cancer", "result": "no significant differences"}
    ]},
    {"smiles": "Nc1nc2c(c(=O)[nH]1)N(C=O)C(CNc1ccc(C(=O)N[C@@H](CCC(=O)O)C(=O)O)cc1)CN2", "note": "(stereo partly drawn) [Leucovorin]", "values": [
      {"measurement": "time-to-progression (TTP) of disease", "setting": "[1]", "result": "prolongation of the time-to-progression (TTP)"}
    ]},
    {"smiles": "Nc1nc2c(c(=O)[nH]1)N1CN(c3ccc(C(=O)N[C@@H](CCC(=O)O)C(=O)O)cc3)C[C@H]1CN2", "note": "[[6R]-MTHF, [6R]-5,10-methylenetetrahydrofolate]", "values": [
      {"measurement": "ORR", "setting": "[2]; [3]", "result": 50, "unit": "%"},
      {"measurement": "patients with clinical benefit, defined as stable disease or partial response", "setting": "[2]; [3]", "result": 100, "unit": "%"},
      {"measurement": "patients showing clinical benefit", "setting": "[2]; 1st line patients, 16 weeks of treatment", "result": 100, "unit": "%"},
      {"measurement": "patients with clinical benefit, defined as stable disease or partial response", "setting": "[2]; 2nd, 3rd or 5th line patients (25), after 8 weeks' treatment", "result": 64, "unit": "%"},
      {"measurement": "patients with partial response", "setting": "[2]; [4]", "result": 27, "unit": "%"},
      {"measurement": "patients with progressive disease", "setting": "[2]; [4]", "result": 13, "unit": "%"},
      {"measurement": "patients with stable disease", "setting": "[2]; [4]", "result": 60, "unit": "%"},
      {"measurement": "clinical benefit, defined as stable disease or tumor response, treated patients", "setting": "[2]; [6R]-MTHF combined with 5-FU", "result": "> 90", "unit": "%"},
      {"measurement": "ORRs (objective response rates)", "setting": "[2]; colorectal cancer patients, initial 5-FU followed by [6R]-MTHF", "result": "50-60%"},
      {"measurement": "progression in the cancer after the initial 8 weeks' treatment", "setting": "[2]; eight 1st line patients, 16 weeks of treatment", "result": "no progression"},
      {"measurement": "toxicity of 5-FU when combined with [6R]-MTHF, compared to 5-FU with other folate adjuvants", "setting": "[2]; in vivo", "result": "reduced"},
      {"measurement": "patients showing Partial Response at 16 weeks", "setting": "[2]; of eight 1st line patients", "result": 5, "unit": "patients"},
      {"measurement": "patients showing Stable Disease at 16 weeks", "setting": "[2]; of eight 1st line patients", "result": 3, "unit": "patients"},
      {"measurement": "treated patients with at least a 25% decrease in the sum of the diameters of target lesions", "setting": "[2]; reference baseline sum diameters, with 5-FU", "result": "~65", "unit": "%"}
    ]}
  ]
}
